Measurements as given in patent US9724544B2, “Vitamin D promoting sunscreen” (priority 2009, dated 2017).
Like-named read-outs stand apart in the source and are kept apart here.

Assays:
[1] = UV absorption spectra (absorbance range, maxima, critical wavelength) of UV filters and other ingredients; type: physicochemical; conditions: over time under the sun
[2] = cited from earlier work; for absorption in the vitamin D producing range: approximately 295 to 315 nm
[3] = tested on: primary human keratinocytes; conditions: De Haes et al. 2005; cited from earlier work

Compound	absorption in the vitamin D producing range [2]	also measured
COc1ccc(C(=O)CC(=O)c2ccc(C(C)(C)C)cc2)cc1 [Avobenzone, 4-tert-butyl-4′-methoxy-dibenzoylmethane]	relative lack of absorption	ability to absorb radiation in the 290 to 315 nm range over time [1]: increases over time
CC1CC(OC(=O)c2ccccc2O)CC(C)(C)C1 (centres unmarked) [Homosalate, 3,3,5-trimethylcyclohexyl salicylate]	minimal to moderate	–
CCCCCOC(=O)c1ccc(N(C)C)cc1 [Padimate-A, amyl p-dimethylaminobenzoate]	high percentage	–
CCOCCOC(=O)C=Cc1ccc(OC)cc1 [Cinoxate, 2-ethoxyethyl p-methoxycinnamate]	high percentage	–
O=C(c1ccccc1)c1ccc(O)cc1O [2,4-Dihydroxybenzophenone]	high percentage	–
O=S(=O)([O-])c1cc(S(=O)(=O)O)cc2[nH]c(-c3ccc(-c4nc5c(S(=O)(=O)[O-])cc(S(=O)(=O)O)cc5[nH]4)cc3)nc12.[Na+].[Na+] [Bisdisulizole disodium, disodium phenyl dibenzimidazole tetrasulfonate]	relative lack of absorption	–
CCCCCCOC(=O)c1ccccc1C(=O)c1ccc(N(CC)CC)cc1O [Uvinul A Plus, diethylamino hydroxybenzoyl hexyl benzoate]	relative lack of absorption	–
COc1cc(O)c(C(=O)c2ccccc2)cc1S(=O)(=O)O [Sulisobenzone, 2-hydroxy-4-methoxybenzophenone-5-sulfonic acid]	minimal to somewhat moderate	–
CCCCCCCCOc1ccc(C(=O)c2ccccc2)c(O)c1 [2-Hydroxy-4-(Octyloxy)Benzophenone]	high percentage	–
CCCCC(CC)COc1ccc(-c2nc(-c3ccc(OC)cc3)nc(-c3ccc(OCC(CC)CCCC)cc3O)n2)c(O)c1 (centres unmarked) [Bemotrizinol, bis-ethylhexyloxyphenol methoxyphenyl triazine]	high percentage	–
CCCCC(CC)COC(=O)C(C#N)=C(c1ccccc1)c1ccccc1 (stereo not drawn) [Octocrylene, 2-ethylhexyl alpha-cyano-beta-phenylcinnamate]	minimal to moderate	–
COc1ccc(C(=O)c2ccc(OC)cc2O)c(O)c1 [2,2′-Dihydroxy-4,4′-dimethoxybenzophenone]	high percentage	–
COc1ccc(C=CC(=O)OCCC(C)C)cc1 [Isoamyl p-methoxycinnamate]	high percentage	–
CCCCC(CC)COC(=O)c1ccc(Nc2nc(Nc3ccc(C(=O)OCC(CC)CCCC)cc3)nc(Nc3ccc(C(=O)OCC(CC)CCCC)cc3)n2)cc1 (centres unmarked) [Ethylhexyl Triazone]	high percentage	–
Cc1ccc(C=C2C(=O)C3(C)CCC2C3(C)C)cc1 (centres unmarked) [4-Methylbenzylidene camphor, 3-(4-methylbenzyliden)camphor]	high percentage	–
C=C1/C(=C\C=C2/CCC[C@]3(C)[C@@H]([C@H](C)CCCC(C)(C)O)CC[C@@H]23)C[C@@H](O)C[C@@H]1O [1,25(OH)2D3, 1,25-dihydroxyvitamin D3]	–	protection against UVB-induced DNA damage [3]: protects
CC(=O)C=CC=C1C2CCC(C2)C1(C)C (centres unmarked) [Digalloyl trioleate, 5-(3,3-Dimethyl 2 norbornyliden)-3penten-2-one]	high percentage	–
Nc1ccc(C(=O)O)cc1 [Aminobenzoic acid, 4-aminobenzoic acid]	high percentage	maximum absorbance ([2]; dissolved in alcohol): 289 nm; maximum absorbance ([2]; dissolved in water): 278 nm
O=C(c1ccc(O)cc1O)c1ccc(O)cc1O [2,2^1,4,4′-Tetrahydroxybenzophenone]	high percentage	–
Nc1ccc(C(=O)OCC(O)CO)cc1 (centres unmarked) [Glyceryl Aminobenzoate, glyceryl 1-(4-aminobenzoate)]	high percentage	–
CCCCC(CC)COC(=O)c1ccc(Nc2nc(Nc3ccc(C(=O)NC(C)(C)C)cc3)nc(Nc3ccc(C(=O)OCC(CC)CCCC)cc3)n2)cc1 (centres unmarked) [Iscotrizinol, diethylhexyl butamido triazone]	high percentage	–
CCCCC(CC)COC(=O)c1ccc(N(C)C)cc1 (centres unmarked) [Padimate-0, 2-ethylhexyl 4-dimethylaminobenzoate]	high percentage	–
COc1ccc(C(=O)c2ccc(C)cc2)c(O)c1 [Mexenon, 2-hydroxy-4-methoxy-4′-methyl-benzophenone]	minimal to moderate	–
4-Bis(polyethoxy)para-aminobenzoic acid polyethoxyethyl ester [PEG-25 PABA]	minimal absorption	–
COc1ccc(C(=O)c2ccccc2)c(O)c1 [Oxybenzone, 2-hydroxy-4-methoxybenzophenone]	minimal to moderate	–
CCCCC(CC)COC(=O)c1ccccc1O (centres unmarked) [Octisalate, 2-ethylhexyl salicylate]	minimal to moderate	–
